The target in test [1] is Histone acetyltransferase KAT6A (UniProt Q92794). Description: Kat6a Activity Assay. As to the method: Recombinant human His-tagged Kat6a protein (amino acids 194-810), was purified in-house from Baculovirus-infected insect cells (Sf9). Histone H4 peptide (amino acids 1-24, […]-VLRD-K(Btn)-amide), which was used as substrate, was synthesized by Biosyntan GmbH, Berlin, Germany. Acetyl Coenzyme A was purchased from Sigma-Aldrich (#A-2056).Kat6a was incubated for 60 mins at 22° C. in the presence of different concentrations of test substances (0 μM, and within the range 0.01-20 μM) in assay buffer [25 mM Tris/HCl pH 8, 1 mM EGTA, 2.5 mM Glutathion, 0.02% Chicken Albumin, 0.05% Pluronic F127, 25 mM NaCl, 220 nM H4 peptide and 600 nM Acetyl Coenzym A].The reaction was stopped by addition of Detection Solution (25 mM HEPES pH 7.5, 0.1% BSA, 22 nM SAXL665 (Cisbio #610SAXLE), 100 μM Anacardic Acid (Enzo #ALX-270-381), 1 nM Anti-Histone H4 (ACETYL K8) Antibody (ABCAM #AB15823) and 0.5 nM Anti-Rabbit IgG Eu (Perkin Elmer #AD0083).

For test [2], the target named is T1, Histone acetyltransferase KAT6B [431-2073] (Homo sapiens (Human), UniProt Q8WYB5).
T1 construct: 431-2073
Briefly: Kat6b Activity Assay.

Usually IC50 stands for the concentration needed to halve the response being measured. Higher therefore signals weaker potency.

Chain of Histone acetyltransferase KAT6A (Q92794 whole entry, the tested form may be a part): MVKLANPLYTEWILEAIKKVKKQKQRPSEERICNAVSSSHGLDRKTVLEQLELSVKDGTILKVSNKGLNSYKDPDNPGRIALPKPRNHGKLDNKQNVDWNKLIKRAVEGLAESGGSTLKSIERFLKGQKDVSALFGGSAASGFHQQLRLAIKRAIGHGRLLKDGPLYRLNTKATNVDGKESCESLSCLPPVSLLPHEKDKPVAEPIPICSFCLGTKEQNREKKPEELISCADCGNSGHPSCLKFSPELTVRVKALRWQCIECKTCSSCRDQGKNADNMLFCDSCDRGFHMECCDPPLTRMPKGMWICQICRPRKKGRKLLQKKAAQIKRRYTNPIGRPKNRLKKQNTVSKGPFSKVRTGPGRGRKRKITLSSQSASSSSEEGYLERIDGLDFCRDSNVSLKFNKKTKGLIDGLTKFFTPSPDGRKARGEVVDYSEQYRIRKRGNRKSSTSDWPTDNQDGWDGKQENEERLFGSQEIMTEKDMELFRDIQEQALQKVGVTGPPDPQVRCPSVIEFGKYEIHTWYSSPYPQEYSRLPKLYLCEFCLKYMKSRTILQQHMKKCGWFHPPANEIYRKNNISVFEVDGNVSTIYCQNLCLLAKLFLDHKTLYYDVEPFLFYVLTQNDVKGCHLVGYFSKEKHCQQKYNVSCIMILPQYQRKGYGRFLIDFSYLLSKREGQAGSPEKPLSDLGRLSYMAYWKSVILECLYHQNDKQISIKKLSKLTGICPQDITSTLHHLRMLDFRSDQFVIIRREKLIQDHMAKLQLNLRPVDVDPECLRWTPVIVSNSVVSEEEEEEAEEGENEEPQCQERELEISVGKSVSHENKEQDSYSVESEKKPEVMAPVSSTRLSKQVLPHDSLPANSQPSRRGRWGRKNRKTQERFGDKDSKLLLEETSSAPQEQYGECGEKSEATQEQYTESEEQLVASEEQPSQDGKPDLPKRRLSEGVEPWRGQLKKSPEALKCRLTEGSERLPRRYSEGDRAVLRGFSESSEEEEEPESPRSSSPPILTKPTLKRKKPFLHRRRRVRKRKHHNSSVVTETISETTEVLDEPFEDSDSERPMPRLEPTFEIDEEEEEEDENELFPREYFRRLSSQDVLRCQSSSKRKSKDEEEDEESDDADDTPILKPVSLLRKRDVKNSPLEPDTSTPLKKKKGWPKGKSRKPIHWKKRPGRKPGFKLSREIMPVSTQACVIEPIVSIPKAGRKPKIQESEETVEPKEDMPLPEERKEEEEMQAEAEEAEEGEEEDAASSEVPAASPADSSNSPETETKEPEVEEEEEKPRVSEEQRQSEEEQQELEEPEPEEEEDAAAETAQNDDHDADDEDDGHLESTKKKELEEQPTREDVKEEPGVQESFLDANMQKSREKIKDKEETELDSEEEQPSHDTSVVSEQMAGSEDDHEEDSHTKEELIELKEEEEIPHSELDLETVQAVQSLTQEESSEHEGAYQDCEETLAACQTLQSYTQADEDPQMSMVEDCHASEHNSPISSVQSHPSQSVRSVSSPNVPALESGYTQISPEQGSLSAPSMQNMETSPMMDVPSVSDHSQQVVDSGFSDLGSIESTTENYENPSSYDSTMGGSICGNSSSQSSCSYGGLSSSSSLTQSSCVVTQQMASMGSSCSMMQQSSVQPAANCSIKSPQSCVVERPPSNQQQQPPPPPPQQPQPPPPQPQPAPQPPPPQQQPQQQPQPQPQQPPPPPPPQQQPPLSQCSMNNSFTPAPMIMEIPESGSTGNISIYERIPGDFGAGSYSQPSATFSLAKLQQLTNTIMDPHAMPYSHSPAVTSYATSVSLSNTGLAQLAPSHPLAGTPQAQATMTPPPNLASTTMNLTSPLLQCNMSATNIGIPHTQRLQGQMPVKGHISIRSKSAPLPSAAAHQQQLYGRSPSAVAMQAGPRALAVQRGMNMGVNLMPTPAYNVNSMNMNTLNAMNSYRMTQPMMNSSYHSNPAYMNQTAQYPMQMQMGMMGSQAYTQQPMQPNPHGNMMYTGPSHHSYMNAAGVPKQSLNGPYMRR
T1 sequence (Q8WYB5 431-2073): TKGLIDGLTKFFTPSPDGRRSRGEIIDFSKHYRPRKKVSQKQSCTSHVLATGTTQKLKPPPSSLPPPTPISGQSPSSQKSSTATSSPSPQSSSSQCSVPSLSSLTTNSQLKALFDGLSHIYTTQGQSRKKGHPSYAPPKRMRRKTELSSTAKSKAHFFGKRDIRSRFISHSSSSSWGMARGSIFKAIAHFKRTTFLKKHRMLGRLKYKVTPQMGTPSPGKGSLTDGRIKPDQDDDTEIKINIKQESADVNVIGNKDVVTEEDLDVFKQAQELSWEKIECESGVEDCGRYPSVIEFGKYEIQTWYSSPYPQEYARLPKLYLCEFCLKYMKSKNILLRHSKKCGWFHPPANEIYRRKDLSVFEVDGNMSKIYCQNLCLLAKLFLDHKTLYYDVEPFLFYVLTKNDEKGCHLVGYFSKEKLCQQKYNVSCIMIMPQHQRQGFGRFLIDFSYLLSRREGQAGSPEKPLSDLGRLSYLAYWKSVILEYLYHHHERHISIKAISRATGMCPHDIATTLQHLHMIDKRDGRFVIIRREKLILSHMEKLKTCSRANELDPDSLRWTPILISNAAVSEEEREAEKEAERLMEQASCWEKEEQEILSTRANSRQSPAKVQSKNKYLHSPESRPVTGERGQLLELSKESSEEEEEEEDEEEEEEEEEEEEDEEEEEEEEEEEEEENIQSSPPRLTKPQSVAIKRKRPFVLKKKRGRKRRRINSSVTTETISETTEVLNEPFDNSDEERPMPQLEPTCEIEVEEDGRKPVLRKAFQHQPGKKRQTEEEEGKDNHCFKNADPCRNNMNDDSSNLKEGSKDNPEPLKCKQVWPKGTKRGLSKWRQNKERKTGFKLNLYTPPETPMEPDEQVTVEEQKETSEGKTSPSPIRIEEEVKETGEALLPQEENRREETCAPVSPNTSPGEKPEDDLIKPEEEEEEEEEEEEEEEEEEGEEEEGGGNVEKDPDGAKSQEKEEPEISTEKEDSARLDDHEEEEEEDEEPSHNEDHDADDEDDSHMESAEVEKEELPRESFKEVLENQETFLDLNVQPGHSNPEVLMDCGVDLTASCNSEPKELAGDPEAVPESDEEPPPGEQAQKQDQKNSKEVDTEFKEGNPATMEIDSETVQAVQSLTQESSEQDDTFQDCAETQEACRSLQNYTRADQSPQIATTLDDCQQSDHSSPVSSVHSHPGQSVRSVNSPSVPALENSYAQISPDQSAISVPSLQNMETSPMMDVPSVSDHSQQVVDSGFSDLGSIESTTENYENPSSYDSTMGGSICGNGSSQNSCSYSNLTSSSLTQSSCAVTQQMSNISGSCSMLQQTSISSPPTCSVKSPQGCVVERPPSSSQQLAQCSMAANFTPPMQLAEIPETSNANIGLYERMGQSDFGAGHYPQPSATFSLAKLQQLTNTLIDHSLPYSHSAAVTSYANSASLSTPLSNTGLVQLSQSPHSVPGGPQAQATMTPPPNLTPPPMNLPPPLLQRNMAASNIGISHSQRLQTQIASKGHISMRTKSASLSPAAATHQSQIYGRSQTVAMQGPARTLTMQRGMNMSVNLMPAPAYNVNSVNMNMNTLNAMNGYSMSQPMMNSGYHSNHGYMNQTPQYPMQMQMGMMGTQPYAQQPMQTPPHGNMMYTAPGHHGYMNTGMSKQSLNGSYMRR

In test [1], `CN(C)c1ccc2cc(C(=O)NS(=O)(=O)c3c(Cl)cccc3Cl)oc2c1` [US12357603, Example 98] had a 50% inhibitory concentration (IC50) of 0.465 µM.

As for `CCCN(C)c1ccc2cc(C(=O)NS(=O)(=O)c3ccccc3-c3ccccc3)oc2c1` [US12357603, Example 37], it took 1.06 µM to reach half-maximal inhibition in test [2] (IC50).

As for `CN(c1ccc2cc(C(=O)NS(=O)(=O)c3ccccc3-c3ccccc3)oc2c1)C1CCCC1` [US12357603, Example 46], the concentration for half-maximal inhibition (IC50) turned out to be 3.65 µM in test [1] and 0.112 µM in test [2].

In turn, `CN(C)c1c(Br)cc2cc(C(=O)NS(=O)(=O)c3ccccc3-c3ccccc3)oc2c1F` [US12357603, Example 206] came in with an IC50 in test [1] of 4.7 µM.

Turning to `CCOc1ccc(Br)cc1S(=O)(=O)NC(=O)c1cc2ccc(N(C)CCOC)cc2o1` [US12357603, Example 213], in test [1], it took 1.06 µM to reach half-maximal inhibition (IC50).

With `CN(c1ccccc1)c1ccc2cc(C(=O)NS(=O)(=O)c3ccc(Cl)cc3Cl)oc2c1` [US12357603, Example 09], the IC50 in test [1] is 2.55 µM; in test [2], 5.72 µM.

With `CN(C)c1ccc2cc(C(=O)NS(=O)(=O)c3ccccc3-c3ccc(CO)cc3)oc2c1` [US12357603, Example 51], the 50% inhibitory concentration (IC50) was found to be 0.0573 µM in test [1] and 0.103 µM in test [2].

As for `Cc1ccc2cccc(S(=O)(=O)NC(=O)c3cc4cc(C#N)c(N(C)C)cc4o3)c2n1` [US12357603, Example 209], the midpoint of inhibition in test [1], the IC50, lay at 0.903 µM. This lies in the sub-micromolar range.

With `CC(C)Oc1ccccc1S(=O)(=O)NC(=O)c1cc2cc(Br)c(N(C)C)cc2o1` [US12357603, Example 208], the half-maximal inhibitory concentration (IC50) in test [1] turned out to be 7.76 µM.

In test [1], `CCCc1ccccc1S(=O)(=O)NC(=O)c1cc2ccc(N(C)C)cc2o1` [US12357603, Example 52] yielded a 50% inhibitory concentration (IC50) of 0.187 µM.

In the case of `O=C(NS(=O)(=O)c1ccccc1-c1ccccc1)c1cc2ccc(N3CCCC3=O)cc2o1` [US12357603, Example 62], the IC50 in test [1] is 13.5 µM; in test [2], more than 20 µM.

With `CCN(C)c1ccc2cc(C(=O)NS(=O)(=O)c3ccc(Cl)cc3Cl)oc2c1` [US12357603, Example 03], the half-inhibitory concentration (IC50) came to 1.39 µM in test [1] and 0.81 µM in test [2].

`CN(C)c1ccc2cc(C(=O)NS(=O)(=O)c3cc(Cl)cc4cccnc34)oc2c1` [US12357603, Example 124]: the 50% inhibitory concentration (IC50) was 0.0928 µM in test [1] and 0.0522 µM in test [2].

Regarding `COCCN(C)c1ccc2cc(C(=O)NS(=O)(=O)c3ccccc3-c3ccccc3)oc2c1` [US12357603, Example 39], the IC50 in test [2] stood at 0.534 µM.

In test [1], `CN(C)c1ccc2cc(C(=O)NS(=O)(=O)c3ccccc3-c3ccccc3)oc2c1C#N` [US12357603, Example 64] displayed a 50% inhibitory concentration (IC50) of 14.3 µM. That is a double-digit micromolar value.

The record behind these values is BindingDB's records for patent US12357603 (Bayer Aktiengesellschaft; The Broad Institute, Inc., 2025).
